ChEMBL document CHEMBL1201862, “PubChem BioAssay data set” (2004)
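Briefly, cells in 96-well plates were exposed to five compound concentrations for 48 h, and endpoints were estimated by linear interpolation. Here, GI50 denotes the concentration required for 50% inhibition of growth.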 Active and inactive are the calls of the source. Rule as the data show it: active = GI50 up to about 1.1 µM and inactive = higher.

Experiments:
Experiment in all cases: DTP human tumour cell line panel, 48 h
CAKI-1 = system: CAKI-1
CCRF-CEM = system: CCRF-CEM
HCC 2998 = system: HCC 2998
HCT-116 = system: HCT-116
HCT-15 = system: HCT-15
HL-60 = system: HL-60
HOP-92 = system: HOP-92
KM12 = system: KM12
MCF7 = system: MCF7
MDA-N = system: MDA-N
NCI-H23 = system: NCI-H23
PC-3 = system: PC-3
SF-268 = system: SF-268
SK-OV-3 = system: SK-OV-3
SN12C = system: SN12C
SR = system: SR
T47D = system: T47D
UACC-257 = system: UACC-257
UACC-62 = system: UACC-62

Structure (SMILES)	GI50 (CAKI-1)	GI50 (CCRF-CEM)	GI50 (HCC 2998)	GI50 (HCT-116)	GI50 (HCT-15) [µM]	GI50 (HL-60)	GI50 (HOP-92)	GI50 (KM12)	GI50 (MCF7)	GI50 (MDA-N)	GI50 (NCI-H23)	GI50 (PC-3)	GI50 (SF-268)	GI50 (SK-OV-3)	GI50 (SN12C)	GI50 (SR)	GI50 (T47D)	GI50 (UACC-257)	GI50 (UACC-62)
COC1CC(OC2OC(CO)C(O)C(O)C2O)/C(=C\C#N)C(O)C1OC (configuration not stated)	> 100 µM (inactive)	> 100 µM (inactive)	> 100 µM (inactive)	> 100 µM (inactive)	> 100	> 100 µM (inactive)	> 100 µM (inactive)	> 100 µM (inactive)	> 100 µM (inactive)	> 100 µM (inactive)	> 100 µM (inactive)	> 100 µM (inactive)	> 100 µM (inactive)	> 100 µM (inactive)	> 100 µM (inactive)	> 100 µM (inactive)	> 100 µM (inactive)	> 100 µM (inactive)	> 100 µM (inactive)
CC(=O)Nc1ccccc1SCCSSCCSc1ccccc1NC(C)=O	20.8 µM (inactive)	23.6 µM (inactive)	22.3 µM (inactive)	36.2 µM (inactive)	20.7	17.4 µM (inactive)	17.5 µM (inactive)	40.1 µM (inactive)	38.9 µM (inactive)	25.4 µM (inactive)	30.1 µM (inactive)	23.1 µM (inactive)	38.2 µM (inactive)	27.8 µM (inactive)	32.4 µM (inactive)	34.4 µM (inactive)	25.6 µM (inactive)	20.7 µM (inactive)	32 µM (inactive)
CC1=C(O)C(O)=C(C2=C(O)C(O)=C(C)C(=O)C2=O)C(=O)C1=O	40.7 µM (inactive)	60 µM (inactive)	39.1 µM (inactive)	46.7 µM (inactive)	> 100	42.9 µM (inactive)	29.9 µM (inactive)	38.5 µM (inactive)	45.3 µM (inactive)	40.9 µM (inactive)	40.7 µM (inactive)	60.8 µM (inactive)	56.9 µM (inactive)	37.2 µM (inactive)	45 µM (inactive)	> 100 µM (inactive)	37.5 µM (inactive)	35.6 µM (inactive)	18.6 µM (inactive)
COCC(/N=C\N1CCCc2ccccc2[C@@H]1CCCCl)C(C)(C)C (some centres not stated)	1.58 µM (inactive)	0.444 µM (active)	13.3 µM (inactive)	1.23 µM (inactive)	41.9	0.619 µM (active)	7.19 µM (inactive)	4.24 µM (inactive)	0.351 µM (active)	33.8 µM (inactive)	0.421 µM (active)	0.482 µM (active)	> 100 µM (inactive)	14.6 µM (inactive)	17.1 µM (inactive)	2.05 µM (inactive)	21.2 µM (inactive)	0.798 µM (active)	10.3 µM (inactive)
CC(C)(C)OC(=O)NCCCNC1(c2cc3ccccc3s2)CCCCC1	13.6 µM (inactive)	8.22 µM (inactive)	3.56 µM (inactive)	12 µM (inactive)	14.9	10.5 µM (inactive)	10 µM (inactive)	17 µM (inactive)	15.9 µM (inactive)	15.1 µM (inactive)	13 µM (inactive)	18.8 µM (inactive)	16.7 µM (inactive)	13.2 µM (inactive)	15.3 µM (inactive)	10.2 µM (inactive)	16.7 µM (inactive)	15.8 µM (inactive)	17.4 µM (inactive)
CC1=Nc2ccccc2OC(C)=C1/N=N/c1ccc2[nH]c(C)nc2c1	47.1 µM (inactive)	> 100 µM (inactive)	> 100 µM (inactive)	> 100 µM (inactive)	> 100	> 100 µM (inactive)	44.1 µM (inactive)	> 100 µM (inactive)	45.8 µM (inactive)	> 100 µM (inactive)	> 100 µM (inactive)	> 100 µM (inactive)	> 100 µM (inactive)	> 100 µM (inactive)	84.7 µM (inactive)	> 100 µM (inactive)	50.9 µM (inactive)	> 100 µM (inactive)	83.4 µM (inactive)
CC1C2CCC3C(O)C2(CC(O)C2(O)C1CC(O)C2(C)C)CC3(C)O (configuration not stated)	> 100 µM (inactive)	> 100 µM (inactive)	> 100 µM (inactive)	> 100 µM (inactive)	> 100	> 100 µM (inactive)	> 100 µM (inactive)	> 100 µM (inactive)	> 100 µM (inactive)	> 100 µM (inactive)	> 100 µM (inactive)	> 100 µM (inactive)	> 100 µM (inactive)	> 100 µM (inactive)	> 100 µM (inactive)	> 100 µM (inactive)	> 100 µM (inactive)	> 100 µM (inactive)	> 100 µM (inactive)
COc1cccc(-c2nnc3c(-c4ccccc4)nc4ccccc4n23)c1	33.6 µM (inactive)	11.2 µM (inactive)	8.49 µM (inactive)	19.7 µM (inactive)	7.23	7.18 µM (inactive)	28 µM (inactive)	4.94 µM (inactive)	14.4 µM (inactive)	3.5 µM (inactive)	30.1 µM (inactive)	16.4 µM (inactive)	> 100 µM (inactive)	73.8 µM (inactive)	73.1 µM (inactive)	3.9 µM (inactive)	4.35 µM (inactive)	17.9 µM (inactive)	75.7 µM (inactive)
